Measurements: paper PMC7687371, “Quantitative in Vitro to in Vivo Extrapolation (QIVIVE) for Predicting Reduced Anogenital Distance Produced by Anti-Androgenic Pesticides in a Rodent Model for Male Reproductive Disorders” (Environmental Health Perspectives, 2020)
Where two headings read alike, the source gives them in different places. Marks after values point to notes of the source that are not given here.

Legend:
[1] = design: method as in U.S. EPA 2012; settings: EPI Suite, experimental preferred over modeled; ref U.S. EPA 2012; cited from earlier work
[2] = Fetal chemical exposure analysis (LC-QTOF) at GD21; type: in vivo, rat; settings: for Measured concentration in male fetuses: Sprague-Dawley, rat, in vivo, 40 mg/kg/day
Procedure: Dams were decapitated under CO2 /oxygen anesthesia at GD21 and fetuses collected by cesarean section. Prior to decapitation of the fetuses, their BWs and AGDs were recorded. Blood from the dams was collected in heparinized vacutainer tubes, centrifuged at 125×g for 10 min at 4°C to prepare plasma, and, together with the amniotic fluid, frozen directly. Pooled trunk blood from all female and male fetuses of the same litter (female and male blood separately) was collected into heparin-treated capillary tubes approximately 90 min after dosing and the plasma was prepared and stored at −80°C until analysis for pesticides and selected metabolites by liquid chromatography quadrupole time-of-flight mass spectroscopy (LC-QTOF). Details about the LC-QTOF analyses are provided in “Method S1” in Supplemental Material. Amniotic fluid was collected from fetuses by pipetting, pooled within each litter, snap frozen in liquid nitrogen, and subsequently stored at −80 °C .
Method S1. Chemical analysis of pesticide levels
Acetonitrile, methanol, formic acid and 25% ammonium hydroxide, all of LC-MS grade and ethyl acetate were obtained from Sigma Aldrich, Schneldorf, Germany. Isolute bulk C-18 sorbent was obtained from Biotage, Sweden and was washed with acetonitrile and ethyl acetate and dried prior to use. Water was purified on a Milli Q system, Millipore Corporation, US.
Pesticide standards were purchased from Dr. Ehrenstorfer (Augsburg, Germany), LGC-standards (Teddington, Middlesex, UK) and Sigma Aldrich (St. Louis, MO, USA). Acetonitrile used as solvents for the LC-QTOF was LiChrosolv Hypergrade. An ESI-L low concentration tuning mix from Agilent (Santa Clara, CA, USA) was used for tuning of the TOF. A reference solution was prepared containing Purine and HP0921 from Agilent (Santa Clara, CA, USA).
Stock solutions of the pesticides were prepared at 1 mg/ml in acetonitrile, methanol or toluene.
Standard mixtures containing the test compounds were prepared at a concentration of 10 µg/ml acetonitrile and used for preparation of calibration solutions. Isomers eluting very close to each other were avoided in these mixtures. […]
added 200 µl of ice-cold acetonitrile in Eppendorf tubes. Internal standard was added in the form of 10 µl TPP (5 µg/ml) and the extraction was performed by whirl mixing. The tube was then stored on ice for 5 min and then centrifuged at 10,000 x g for 10 min at 4 °C (Ole Dich Instrument, Denmark). An aliquot of the supernatant was transferred to filter vials (0.45 µm) and analysed by […]
Quality control samples were included in each analytical run. These were prepared using the same procedure as for the samples, though using amniotic fluid from untreated control Wistar rats extracted with acetonitrile containing three different levels of the relevant pesticide standards. The resulting spike levels were 0.04, 0.013 and 0.13 µg/ml. […]
fluid or plasma from Sprague Dawley rats was transferred to an Eppendorf vial and added 150 µl of acetonitrile. 50 mg of isolute C-18 sorbent was added to the tube, which was shaken for 5 min, […]
cooled to 4 °C and centrifuged at 10,000 x g for 10 min at 4 °C (Ole Dich Instrument makers, Denmark). 20 µl of the supernatant was transferred to an HPLC vial and mixed with 80 µl of 5%- 75% acetonitrile (this percentage was analyte dependent) prior to analysis by LC-MS.LC -QTOF […]
Pesticide screening was carried out using a liquid chromatography-electrospray ionization-quadrupole-time of flight-mass spectrometer.
The LC system was connected to a Bruker Daltonics, maXis qTOF mass spectrometer equipped with an electrospray ion source operated in positive ion mode (Bruker Daltonics, Bremen, Germany). The ion source settings were: nebulizer pressure 2 bars, drying gas flow 8 l/min, dry gas temperature 200 °C, capillary voltage 2500 V. The scan range was from 80 to 700 m/z with an acquisition rate of 2 Hz. Sodium formate dissolved in 50% 2-propanol was introduced in the ion […]

[3] = design: method as in Sierra-Santoyo et al. (2008); settings: conversion of parent compound into active metabolite; ref Sierra-Santoyo et al. (2008); cited from earlier work
[4] = PBK model first-order kinetic parameters fitted to in vivo ADME data; design: species or system rat; settings: PBK model parameter; for Metabolism rate in liver, Total (L/h) KMetab: metabolic clearance
[5] = target: androgen receptor (AR); design: method as in Vinggaard et al. (2008); settings: ref Vinggaard et al. (2008); read-out: AR antagonism (IC50); cited from earlier work
[6] = test system: NCI-H295R cells; test: H295R steroidogenesis assay; type: cell-based, human; settings: for Effect on androgen (steroid) synthesis, in words: H295R steroidogenesis assay
Procedure: To capture effects on steroid hormone synthesis (testosterone and androstendione), we tested all 12 pesticides in the H295R assay with the human adrenocortical carcinoma cell line NCI-H295R (American Type Culture Collection no. CRL-2,128, LGC Standards), as previously described ([Hecker et al. 2011]; [Rosenmai et al. 2013]). In brief, cells were cultured in DMEM/F-12 +glutamine medium with HEPES buffer (Invitrogen) containing 1% insulin-transferrin-sodium selenite plus Premix (VWR) and 2.5% Nu-Serum (BD Bioscience) at 37°C in a 5% CO2 atmosphere. The day before exposure, cells were seeded 300,000 per well in clear 24-well plates (VWR Corning). Cells were exposed for 48 h to control (Forskolin: 1μM , 10μM (Sigma-Aldrich); and Prochloraz: 0.3μM , 3μM (VWR-Bie and Berntsen) or test compounds. The vehicle (DMSO) concentration was kept constant in all wells (0.1%). After 48 h, the exposure culture medium was removed and stored at –80°C until the levels of 10 steroid hormones (testosterone, androstenedione, aldosterone, corticosterone, cortisol, dehydroepiandrosterone, 17α-hydroxyprogesterone , progesterone, estrone, and 17β-estradiol ) were quantified using the high-performance liquid chromatography–tandem mass spectrometry method described elsewhere ([Mortensen and Pedersen 2007]). Minor modifications were made to accommodate a smaller sample size and to include more hormones. The liquid chromatography system (Agilent 1100) was equipped with an Atlantis C18 column ( 2.1×150mm , 3μm ) (Waters Corp.) maintained at 40°C. The sample injection volume was 50μL . […] The mass spectrometer was a Quattro Ultima triple quadrupole instrument (Waters Corp.). […] Each pesticide was tested in 2-fold serial dilutions at concentrations between 0.8 and 50μM in three independent experiments, and hormone levels were normalized to the solvent controls containing 0.1% DMSO. Cell viability was evaluated by using the 3-(4,5-dimethylthiazol-2-yl)-2,5- diphenyltetrazolium bromide (MTT) assay (Sigma) as previously described ([Hecker et al. 2011]; [Rosenmai et al. 2013]). Fluorescence was measured (excitation 560 nm , emission 590 nm ) using a Wallac Victor2 1420 multilabel counter (PerkinElmer).

[7] = test system: NCI-H295R cells; test: Cell viability (MTT) in the H295R assay; type: cell-based, human
Procedure: To capture effects on steroid hormone synthesis (testosterone and androstendione), we tested all 12 pesticides in the H295R assay with the human adrenocortical carcinoma cell line NCI-H295R (American Type Culture Collection no. CRL-2,128, LGC Standards), as previously described ([Hecker et al. 2011]; [Rosenmai et al. 2013]). In brief, cells were cultured in DMEM/F-12 +glutamine medium with HEPES buffer (Invitrogen) containing 1% insulin-transferrin-sodium selenite plus Premix (VWR) and 2.5% Nu-Serum (BD Bioscience) at 37°C in a 5% CO2 atmosphere. The day before exposure, cells were seeded 300,000 per well in clear 24-well plates (VWR Corning). Cells were exposed for 48 h to control (Forskolin: 1μM , 10μM (Sigma-Aldrich); and Prochloraz: 0.3μM , 3μM (VWR-Bie and Berntsen) or test compounds. The vehicle (DMSO) concentration was kept constant in all wells (0.1%). After 48 h, the exposure culture medium was removed and stored at –80°C until the levels of 10 steroid hormones (testosterone, androstenedione, aldosterone, corticosterone, cortisol, dehydroepiandrosterone, 17α-hydroxyprogesterone , progesterone, estrone, and 17β-estradiol ) were quantified using the high-performance liquid chromatography–tandem mass spectrometry method described elsewhere ([Mortensen and Pedersen 2007]). Minor modifications were made to accommodate a smaller sample size and to include more hormones. […]

[8] = test system: pregnant dams and pups; settings: ref EFSA's Draft Assessment Reports (DARs); cited from earlier work
[9] = ref Wetmore et al. (2012); cited from earlier work
[10] = test system: Wistar rats; settings: rat, in vivo, cited from earlier work
[11] = test system: Wistar rats; settings: male, rat, in vivo, 40 mg/kg/day
Procedure: In total, four in vivo exposure studies were conducted with pesticide exposures to pregnant rats during gestation and lactation to the selected compound (Table 2). […] For one selected dose of each compound, the internal body concentrations in dams and fetuses were determined by cesarean section at GD21. Due to the study outcomes from the third study, we conducted a fourth follow-up study on dimethomorph (Study 4).
Pup weights and AGD were measured after birth at PD1 using a stereomicroscope with a micrometer eyepiece and were determined as the distance between the genital papilla and the anus. To discriminate between an anti-androgenic effect and stunted growth, the AGD index (AGDI) was calculated by dividing AGD by the cube root of the BW (as described by [Hass et al. 2007]). The estimation of AGDI effect doses by regression modeling required a standardized AGDI scale. Therefore, we normalized the AGDI values in relation to the dynamic range spanned by the mean AGDI of the male and the female controls as (38) normalized AGDI=mean(AGDI of male controls)−AGDI(exposed animal)/mean(AGDI of male controls)−mean(AGDI of female controls).

C=CC(C)(OC(=O)Nc1cc(Cl)cc(Cl)c1)C(=O)O (centres unmarked) [M1, 2-[[(3,5-dichlorophenyl)-carbamoyl]oxy]-2-methyl-3-butenoic acid]
log Kow [1]: 3.52 | Measured concentration in male fetuses [2]: 18.0 µM | Metabolism rate in liver, Metabolite (L/h) [3]: 2.8^h L/h | Urine excretion rate from kidney (L/h) KUrine [4]: 0.2 L/h | IC50 [5]: 2 µM

Fc1ccc(Oc2ccnc3cc(Cl)cc(Cl)c23)cc1 [Quinoxyfen, quinoxyphen]
log Kow [1]: 4.66 | Effect on androgen (steroid) synthesis, in words [6]: inhibited testosterone synthesis | IC20 ([6]; Homo sapiens, NCI-H295R, read-out: Testosterone inhibition (IC20 µM)): 1 µM | Androstendione, LOEC ([6]; multiple contrast tests): 1.6 µM | Corticosterone, LOEC ([6]; multiple contrast tests): 3.1 µM | DHEA, LOEC ([6]; multiple contrast tests): 1.6 µM | Estradiol, LOEC ([6]; multiple contrast tests): 25 µM | Progesterone, LOEC ([6]; multiple contrast tests): 50 µM | Testosterone, lowest observed effect concentration (LOEC) ([6]; multiple contrast tests): 1.6 µM | Biliary excretion rate (L/h) KBiliary [4]: 1.4 L/h | Fecal excretion rate from gut (L/h) KFeces [4]: 2 L/h | Portal GI absorption rate into liver (L/h) KAS [4]: 1 L/h | Urine excretion rate from kidney (L/h) KUrine [4]: 0.01 L/h | Metabolism rate in liver, Total (L/h) KMetab [4]: 0.3 L/h | Cytotoxicity in H295R assay, concentrations [7]: cytotoxicity was observed at the same concentrations | Critical toxicity [8]: Reduced pup BW during lactation, liver hypertrophy | LOAEL (mg/kg bw) [8]: 100 mg/kg bw | NOAEL (mg/kg bw) [8]: 25 mg/kg bw | Unbound plasma fraction (%) [9]: 5.0^g %

C=CC(C)(O)C(=O)Nc1cc(Cl)cc(Cl)c1 (centres unmarked) [M2, 3′,5′-dichloro-2-hydroxy-2-methylbut-3-enanilide]
log Kow [1]: 2.95 | Measured concentration in male fetuses [2]: 3.4 µM | Metabolism rate in liver, Metabolite (L/h) [3]: 0.9^h L/h | Urine excretion rate from kidney (L/h) KUrine [4]: 0.2 L/h | IC50 [5]: 0.2 µM

C=CC1(C)OC(=O)N(c2cc(Cl)cc(Cl)c2)C1=O (centres unmarked) [Vinclozolin, vinclozolin]
AGDI (normalised to male and female controls) mean ([10]; 5 mg/kg): 0.96 | AGDI (normalised to male and female controls) mean ([10]; 10 mg/kg): 0.80 | AGDI (normalised to male and female controls) mean ([10]; 20 mg/kg): 0.83 | AGDI (normalised to male and female controls) mean ([10]; 24.5 mg/kg): 0.93 | AGDI (normalised to male and female controls) mean ([10]; 40 mg/kg): 0.72 | AGDI (normalised to male and female controls) mean ([10]; 80 mg/kg): 0.46 | AGDI (normalised to male and female controls) mean ([10]; 95.9 mg/kg): 0.42 | AGDI (normalised to male and female controls) mean ([10]; 160 mg/kg): 0.25 | AGDI ED10 [10]: 9.2 mg/kg BW | AGDI ED50 [10]: 78.7 mg/kg BW | log Kow [1]: 3.10 | Measured concentration in male fetuses (μM) ([2]; fetal plasma GD21, mean litter value, dams dosed 40 mg/kg BW per day parent compound (Study 1)): <0.15 ^e μM | Effect on androgen (steroid) synthesis, in words [6]: negligible activity in terms of suppressing steroid synthesis | AGDI reduction (%) [11]: 26^d % | Portal GI absorption rate into liver (L/h) KAS [4]: 0.5 L/h | Urine excretion rate from kidney (L/h) KUrine [4]: 0.05 L/h | Metabolism rate in liver, Total (L/h) KMetab [4]: 1.4 L/h | Unbound plasma fraction (%) [9]: 59^g %
